Measurements taken from patent US12281225B2, “Process for preparing stable polymers containing vinylimidazole” (BASF SE, priority 2018, dated 2025).

Test system: Yeast: Candida albicans, Candida valida, Rhodotorula rura, Saccharomyces cerevisiae
Assay: Preservation test with periodic inoculation, yeast assessment
Type: cell-based
Conditions: for 60 d 40° C., yeast assess., 4th inoculation: sample stored 60 d at 40° C.; for Start sample measurement, yeast assess., 4th inoculation: freshly formulated
Method: Microbiological results at the start (freshly formulated, i.e. 4-week test series is started immediately) and after 60 days of storage at 40° C. (i.e. the 4-week microbial testing is started with the sample stored at 40° C. for 60 days)
The test described below is carried out in order to ascertain the preserving effect of chemical preservatives in aqueous products and systems, the principle of the described method reflecting the efficacy of chemical preservatives with respect to pot-maintenance of aqueous products/systems under conditions corresponding to the use of laundry products/consumer products by the consumer. For this purpose, the preservatives to be tested are added in those concentrations which correspond to from the literature or to the manufacturer data from the suppliers (e.g. Thor, Speyer). In said test, our orientation was toward the upper range, which, with the exception of VI-containing polymers, had always led to excellent results in the case of aqueous polymers for laundry.
A constant microorganism load is achieved by periodic inoculation of the test batches. Before the swabs of each batch made respectively immediately in parallel with the inoculation. The assessment is made on the basis of the microbial growth of the streaks.
When carrying out said tests, 25 g of the polymer to be tested are weighed in each case into a vessel with a screw cap. The preservatives to be tested are each added in separate batches according to the specified use concentrations. An unpreserved product sample was used in each case for the growth control. Two days after the addition of the preservative, the samples are infected with 0.5 ml of inoculum (2% w/w). The titer of this inoculant solution is 10^9 organisms per ml. The following microorganisms are the test organisms for the preservation test:
• Escherichia coli • Staphylococcus aureus • Pseudomonas aeruginosa • Pseudomonas putida • Burkholderia cepacia • Alcaligenes faecalis Yeast: • Candida albicans • Candida valida • Rhodotorula rura • Saccharomyces cerevisiae
The test batches are inoculated four times altogether and once a week and are streaked on an agar plate once a week; the first streaking is done immediately before the new inoculation. Microbial growth on the agar surface is assessed after a three-day incubation at 25° C. As a precaution, negative swabs are additionally observed for a further three days and reassessed. The preserving effect is effected in a semiquantitative method via the growth of the individual streaks in accordance with the assessment from − via + to +++. The preservative result is repeatedly demonstrably robust, i.e. +++− defines the microbial growth.
When assessing the results, it is assumed that a preservative can be regarded as good if there are batches under the above-described laboratory conditions for a period of four weeks without microbial invasion of the sample, and that, even after the fourth inoculation, no microbial attacks occur growth can be identified. • −−: no growth • −: slight growth, max. 100 colonies • 0: moderate growth, max. 400 colonies • +: uniform growth with individual colonies still easily identifiable • ++: strong growth; too many colonies to be counted, already some extensive growth

CCCCCCCCCCCCCCCC[N+](C)(C)Cc1ccccc1.[Cl-] [Polymer 16-BAC, cetylalkonium chloride]
− (slight growth, max. 100 colonies): 60 d 40° C., yeast assess., 4th inoculation (Polymer P1) | Start sample measurement, yeast assess., 4th inoculation (Polymer P2) | 60 d 40° C., yeast assess., 4th inoculation (Polymer P2) | Start sample measurement, yeast assess., 4th inoculation (Polymer P3) | 60 d 40° C., yeast assess., 4th inoculation (Polymer P3) | Start sample measurement, yeast assess., 4th inoculation (Polymer P4) | 60 d 40° C., yeast assess., 4th inoculation (Polymer P4) | Start sample measurement, yeast assess., 4th inoculation (Polymer P5 (HP56)) | 60 d 40° C., yeast assess., 4th inoculation (Polymer P5 (HP56)) | Start sample measurement, yeast assess., 4th inoculation (Polymer P6) | 60 d 40° C., yeast assess., 4th inoculation (Polymer P6) | Start sample measurement, yeast assess., 4th inoculation (Polymer P7) | 60 d 40° C., yeast assess., 4th inoculation (Polymer P7) | 60 d 40° C., yeast assess., 4th inoculation (Polymer P8) | 60 d 40° C., yeast assess., 4th inoculation (Polymer P9)

benzalkonium chloride [BAC]
− (slight growth, max. 100 colonies): 60 d 40° C., yeast assess., 4th inoculation (Polymer P1) | 60 d 40° C., yeast assess., 4th inoculation (Polymer P2) | 60 d 40° C., yeast assess., 4th inoculation (Polymer P3)
